Measured values reported in US12653191B2, “Active compound combinations” (Bayer Aktiengesellschaft, priority 2020, dated 2026).
Several values for one entry are separate records, joined by “and”; a condition that tells them apart may be missing. Equal entries are not always repeated. Where two headings read alike, the source gives them in different places.

Key:
[1] = Log P by HPLC on reversed phase columns (LC-UV), method [a]: acidic range, 0.1% formic acid in water / acetonitrile; assay type: physicochemical
Procedure: Measurement of Log P Values
Measurement of Log P values as provided herein was performed according to EEC directive 79/831 Annex V.A8 by HPLC (High Performance Liquid Chromatography) on reversed phase columns with the following methods: • ^[a]
If more than one Log P value is available within the same method, all the values are given and separated by “+”.

Colletotrichum coccodes = assay: in vitro-Test with fungal microorganisms, Method B (tables J1-J11); assay type: cell-based
In short: (§1)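 Efficacy, relative to untreated control (0% = growth as in control, 100% = no growth), from photometric growth measurement at 600 nm after 3 to 7 days at 20° C., 85% relative humidity. Compound applied in methanol+emulsifier, solvent evaporated, then spore/mycelium-amended liquid medium added.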

[2] = system: Colletotrichum lindemuthianum; assay: in vitro-Test with fungal microorganisms, Method A (tables D1-D8); assay type: cell-based
In short: (§2)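 Broth microdilution-type growth test in potato dextrose medium with spores or mycelium of the fungus, compound pre-dried from methanol/emulsifier. Efficacy from 620 nm extinction after 3-5 days at 20° C, scaled 0% (untreated growth) to 100% (no growth).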

Fusarium culmorum [3] = assay: in vitro-Test with fungal microorganisms, Method A (tables G1-G4); assay type: cell-based
In short: as §2

Fusarium culmorum [4] = assay: in vitro-Test with fungal microorganisms, Method B (tables G5-G15); assay type: cell-based; details: single active compound
In short: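 Compound in methanol plus alkylaryl-polyglycol-ether emulsifier dried in wells, then liquid medium containing Fusarium culmorum spores or mycelium added. Incubated 3-7 days at 20° C, 85% relative humidity; growth read at 600 nm. Efficacy relative to untreated control (0% equals control growth, 100% none).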

Cercospora beticola [5] = assay: in vitro-Test with fungal microorganisms, Method B (tables C11-C20); assay type: cell-based
In short: as §1

Diaporthe citri [6] = assay: in vitro-Test with fungal microorganisms, Method A (tables F1-F11); assay type: cell-based
In short: as §2

Alternaria alternate = assay: in vitro-Test with fungal microorganisms, Method A (tables A1-A12); assay type: cell-based, Alternaria alternata; details: applied alone
In short: as §2

[7] = system: Ustilago segetum var. avenae; assay: in vitro-Test with fungal microorganisms, Method A (tables I1-I5); assay type: cell-based; details: alone
In short: as §2

Parastagonospora nodorum [8] = assay: in vitro-Test with fungal microorganisms, Method B (tables H5-H8); assay type: cell-based
In short: as §1

Botrytis cinerea [9] = assay: in vitro-Test with fungal microorganisms, Method B (tables B15-B18); assay type: cell-based
In short: as §1

Parastagonospora nodorum [10] = assay: in vitro-Test with fungal microorganisms, Method A (tables H1-H4); assay type: cell-based
In short: as §2

Cordana musae = assay: in vitro-Test with fungal microorganisms, Method A (tables E1-E8); assay type: cell-based
In short: as §2

Cercospora beticola [11] = assay: in vitro-Test with fungal microorganisms, Method A (tables C1-C10); assay type: cell-based
In short: as §2

Alternaria alternata = assay: in vitro-Test with fungal microorganisms, Method B (tables A13-A22); assay type: cell-based
In short: as §1

Diaporthe citri [12] = assay: in vitro-Test with fungal microorganisms, Method B (tables F12-F15); assay type: cell-based
In short: as §1

[13] = system: Ustilago segetum var. avenae; assay: in vitro-Test with fungal microorganisms, Method B (tables I6-I11); assay type: cell-based
In short: as §1

Botrytis cinerea [14] = assay: in vitro-Test with fungal microorganisms, Method A (tables B1-B14); assay type: cell-based
In short: as §2

[15] = method [a], acidic range (0.1% formic acid), Table 17, compounds of formula (10)
[16] = Colletotrichum coccodes, read-out: Efficacy %
[17] = Colletotrichum coccodes, applied alone, read-out: Efficacy %

Cc1cc(C(=O)NC(CON2C(=O)c3ccccc3C2=O)Cc2ccc(C)c(C)c2)c(Oc2cccc(Cl)c2F)nn1 (centres unmarked) [Compound 3-45]
LogP ([1]; method [a], acidic range (0.1% formic acid), Table 7, compounds of formula (3)): 4.42^[a]

CON(C)C(=O)c1cc(Cl)nnc1Oc1cccc(C(F)(F)F)c1 [Compound 1-07]
LogP ([1]; method [a], acidic range (0.1% formic acid), Table 3, compounds of formula (1)): 2.90^[a]

CC(O)(Cn1cncn1)c1ccc(Oc2ccc(Cl)cc2)cc1C(F)(F)F (centres unmarked) [(1.055) mefentrifluconazole, mefentrifluconazole]
Efficacy % (Colletotrichum coccodes; 0.008 ppm): 0%
Efficacy % (Colletotrichum coccodes; 0.2 ppm): 34%
Efficacy % (Colletotrichum coccodes; 1 ppm): 100%
Efficacy % (Colletotrichum coccodes; single active compound at 0.2 ppm): 22%
Efficacy % ([2]; mixing partner alone, 0.008 ppm): 0%
Efficacy % ([2]; mixing partner alone, 0.04 ppm): 0%
Efficacy % ([2]; mixing partner alone, 0.2 ppm): 6%
Efficacy % ([2]; mixing partner alone, 1.0 ppm): 13%
Efficacy % ([2]; single active at 0.008 ppm): 7% and 0%
Efficacy % ([2]; single active at 0.04 ppm): 0% and 3%
Efficacy % ([2]; single active at 0.2 ppm): 11%
Efficacy % ([2]; single active at 1.0 ppm): 0%
Efficacy (Fusarium culmorum [3]; Table G1, 0.008 ppm alone): 20%
Efficacy (Fusarium culmorum [3]; Table G1, 0.04 ppm alone): 22%
Efficacy (Fusarium culmorum [3]; Table G1, 0.2 ppm alone): 5%
Efficacy (Fusarium culmorum [3]; Table G1, 1.0 ppm alone): 33%
Efficacy (Fusarium culmorum [4]; 0.008 ppm): 11% and 3%
Efficacy (Fusarium culmorum [4]; 0.04 ppm): 16% and 24%
Efficacy (Fusarium culmorum [4]; 1 ppm): 24% and 33%
Efficacy % (Cercospora beticola [5]; 0.008 ppm): 24%
Efficacy % (Cercospora beticola [5]; 0.04 ppm): 84%
Efficacy % (Cercospora beticola [5]; single compound, 0.008 ppm): 14%
Efficacy % (Cercospora beticola [5]; single compound, 0.04 ppm): 93%
Efficacy (Diaporthe citri [6]; applied alone, 0.008 ppm): 0%
Efficacy (Diaporthe citri [6]; applied alone, 0.04 ppm): 60% and 38%
Efficacy (Diaporthe citri [6]; applied alone, 0.2 ppm): 100%
Efficacy (Diaporthe citri [6]; applied alone, 1.0 ppm): 100%
Efficacy (Diaporthe citri [6]; single active, 0.008 ppm): 17%
Efficacy (Diaporthe citri [6]; single active, 0.04 ppm): 69%
Efficacy (Diaporthe citri [6]; single active, 0.2 ppm): 99%
Efficacy (Diaporthe citri [6]; single active, 1.0 ppm): 100%
Efficacy % (Alternaria alternate; 0.008 ppm): 9%
Efficacy % (Alternaria alternate; 0.04 ppm): 58% and 32%
Efficacy % (Alternaria alternate; 0.2 ppm): 96% and 100%
Efficacy % (Alternaria alternate; 1.0 ppm): 100% and 99%
Efficacy % ([7]; 0.008 ppm): 0%
Efficacy % ([7]; 0.04 ppm): 4%
Efficacy % ([7]; 0.2 ppm): 100%
Efficacy % ([7]; 1.0 ppm): 100%
Efficacy (Parastagonospora nodorum [8]; 0.008 ppm): 84%
Efficacy (Parastagonospora nodorum [8]; 0.04 ppm): 99%
Efficacy % (Botrytis cinerea [9]; 0.008 ppm alone): 0%
Efficacy % (Botrytis cinerea [9]; 0.04 ppm alone): 0%
Efficacy % (Botrytis cinerea [9]; 0.2 ppm alone): 30%
Efficacy (Parastagonospora nodorum [10]; 0.008 ppm): 89%
Efficacy (Parastagonospora nodorum [10]; 0.04 ppm): 99%
Efficacy (Parastagonospora nodorum [10]; 0.2 ppm): 99%
Efficacy (Parastagonospora nodorum [10]; 1.0 ppm): 100%
Efficacy (Parastagonospora nodorum [10]; single active compound, 0.008 ppm): 90%
Efficacy (Parastagonospora nodorum [10]; single active compound, 0.04 ppm): 97%
Efficacy (Parastagonospora nodorum [10]; single active compound, 0.2 ppm): 100%
Efficacy (Parastagonospora nodorum [10]; single active compound, 1.0 ppm): 100%
Efficacy % (Cordana musae; single substance, 0.008 ppm): 4%
Efficacy % (Cordana musae; single substance, 0.04 ppm): 29%
Efficacy % (Cordana musae; single substance, 0.2 ppm): 100%
Efficacy % (Cordana musae; single substance, 1.0 ppm): 100%
Efficacy % (Cercospora beticola [11]; 0.008 ppm): 12%
Efficacy % (Cercospora beticola [11]; 0.008 ppm alone): 60% and 80%
Efficacy % (Cercospora beticola [11]; 0.04 ppm): 100%
Efficacy % (Cercospora beticola [11]; 0.04 ppm alone): 100% and 91%
Efficacy % (Cercospora beticola [11]; 0.2 ppm): 100%
Efficacy % (Cercospora beticola [11]; 0.2 ppm alone): 100%
Efficacy % (Cercospora beticola [11]; 1.0 ppm): 100%
Efficacy % (Cercospora beticola [11]; 1.0 ppm alone): 100%
Efficacy (Alternaria alternata; 0.008 ppm): 9%
Efficacy (Alternaria alternata; 0.04 ppm): 19%
Efficacy (Alternaria alternata; 0.2 ppm): 91%
Efficacy (Alternaria alternata; single compound, 0.2 ppm): 65%
Efficacy (Alternaria alternata; single compound, 1 ppm): 99%
Efficacy (Diaporthe citri [12]; Table F14, 0.008 ppm alone): 8%
Efficacy (Diaporthe citri [12]; Table F14, 0.04 ppm alone): 21%
Efficacy (Diaporthe citri [12]; Table F14, 0.2 ppm alone): 94%
Efficacy (Diaporthe citri [12]; Table F14, 1 ppm alone): 99%
Efficacy % ([13]; 0.008 ppm): 4%
Efficacy % ([13]; 0.04 ppm): 3%
Efficacy % ([13]; 0.2 ppm): 41%
Efficacy % ([13]; 1 ppm): 100%
Efficacy % ([13]; alone, 0.2 ppm): 53%
Efficacy % ([13]; alone, 1 ppm): 100%
Efficacy (Botrytis cinerea [14]; 0.008 ppm): 0%
Efficacy (Botrytis cinerea [14]; 0.04 ppm): 37%
Efficacy (Botrytis cinerea [14]; 0.2 ppm): 78%
Efficacy % (Botrytis cinerea [14]; alone, 0.008 ppm): 0%
Efficacy % (Botrytis cinerea [14]; alone, 0.04 ppm): 0%
Efficacy % (Botrytis cinerea [14]; alone, 0.2 ppm): 53%
Efficacy % (Botrytis cinerea [14]; alone, 1.0 ppm): 100%

N/C(=N\O)c1cc(Cl)nnc1Oc1cccc(Cl)c1 [Compound 10-04]
chromatographic logP [1, 15]: 2

N/C(=N\O)c1cc(Cl)nnc1Oc1cccc(Br)c1F [Compound 10-05]
chromatographic logP [1, 15]: 2.21

FC(F)(F)c1cccc(Oc2nnc(Cl)cc2C2=NOC[C@H](Cc3ccccc3)N2)c1 [Compound I-070, (5S)-5-benzyl-3-[6-chloro-3-[3-(trifluoro-methyl)phenoxy]pyridazin-4-yl]-5,6-dihydro-4H-1,2,4-oxadiazine]
LogP ([1]; method [a]: HPLC, acidic range, 0.1% formic acid in water / acetonitrile): 3.81^[a]

Cc1ccc(CC(CCl)NC(=NO)c2cc(Cl)nnc2Oc2cccc(C(F)(F)F)c2)c(C)c1 (centres unmarked) [Compound 20-08]
LogP ([1]; method [a]): 2.77^[a]

N/C(=N\O)c1cc(Cl)nnc1Oc1cccc(C2CC2)c1F [Compound 10-07]
chromatographic logP [1, 15]: 2.34

N/C(=N\O)c1cc(Cl)nnc1Oc1cccc(C(F)F)c1F [Compound 10-09]
chromatographic logP [1, 15]: 1.91

N/C(=N\O)c1cc(Cl)nnc1Oc1cccc(C2CC2)c1 [Compound 10-08]
chromatographic logP [1, 15]: 2.19

COc1cccc(Oc2nnc(Cl)cc2C#N)c1 [Compound 9-08]
chromatographic logP ([1]; method [a], acidic range (0.1% formic acid), Table 15, compounds of formula (9)): 2.75

CCCN(CC)CC1COC2(CCC(C(C)(C)C)CC2)O1 (centres unmarked) [(1.020) spiroxamine, spiroxamine]
inhibition of growth at 0.8 ppm (Colletotrichum coccodes; [16]): 0%
inhibition of growth at 4 ppm (Colletotrichum coccodes; Colletotrichum coccodes, 4 ppm, read-out: Efficacy %): 0%
inhibition of growth at 20 ppm (Colletotrichum coccodes; [16]): 0%
inhibition of growth at 0.8 ppm (Colletotrichum coccodes; [17]): 0%
inhibition of growth at 20 ppm (Colletotrichum coccodes; [17]): 39%
inhibition of growth at 0.8 ppm ([2]; Colletotrichum lindemuthianum, mixing partner alone, 0.8 ppm, read-out: Efficacy %): 0%
inhibition of growth at 20 ppm ([2]; Colletotrichum lindemuthianum, mixing partner alone, 20.0 ppm, read-out: Efficacy %): 6%
inhibition of growth at 0.8 ppm ([2]; Colletotrichum lindemuthianum, single active at 0.8 ppm, read-out: Efficacy %): 0%
inhibition of growth at 4 ppm ([2]; Colletotrichum lindemuthianum, single active at 4.0 ppm, read-out: Efficacy %): 8%
inhibition of growth at 20 ppm ([2]; Colletotrichum lindemuthianum, single active at 20.0 ppm, read-out: Efficacy %): 0%
Efficacy (Fusarium culmorum [3]; 4.0 ppm, alone): 0%
inhibition of growth at 20 ppm (Fusarium culmorum [3]; Fusarium culmorum, 20.0 ppm, alone, read-out: Efficacy): 0%
inhibition of growth at 4 ppm (Cercospora beticola [5]; Cercospora beticola, single compound, 4 ppm, read-out: Efficacy %): 6%
inhibition of growth at 0.8 ppm (Diaporthe citri [6]; Diaporthe citri, applied alone, 0.8 ppm, read-out: Efficacy): 6%
inhibition of growth at 4 ppm (Diaporthe citri [6]; Diaporthe citri, applied alone, 4.0 ppm, read-out: Efficacy): 8%
inhibition of growth at 20 ppm (Diaporthe citri [6]; Diaporthe citri, applied alone, 20.0 ppm, read-out: Efficacy): 0%
inhibition of growth at 0.8 ppm (Alternaria alternate; Alternaria, 0.8 ppm, read-out: Efficacy %): 18%
inhibition of growth at 4 ppm (Alternaria alternate; Alternaria, 4 ppm, read-out: Efficacy %): 12%
inhibition of growth at 20 ppm (Alternaria alternate; Alternaria, 20 ppm, read-out: Efficacy %): 16%
inhibition of growth at 0.8 ppm ([7]; 0.8 ppm, read-out: Efficacy %): 3%
inhibition of growth at 4 ppm ([7]; 4.0 ppm, read-out: Efficacy %): 71%
inhibition of growth at 20 ppm ([7]; 20.0 ppm, read-out: Efficacy %): 100%
inhibition of growth at 0.8 ppm (Parastagonospora nodorum [8]; Parastagonospora nodorum, 0.8 ppm, read-out: Efficacy): 5%
inhibition of growth at 4 ppm (Parastagonospora nodorum [8]; Parastagonospora nodorum, 4 ppm, read-out: Efficacy): 5%
inhibition of growth at 20 ppm (Parastagonospora nodorum [8]; Parastagonospora nodorum, 20 ppm, read-out: Efficacy): 17%
Efficacy (Parastagonospora nodorum [10]; single active compound, 0.8 ppm): 2%
Efficacy (Parastagonospora nodorum [10]; single active compound, 4.0 ppm): 4%
Efficacy (Parastagonospora nodorum [10]; single active compound, 20.0 ppm): 7%
inhibition of growth at 20 ppm (Cordana musae; Neocordana musae, mixing partner alone, 20.0 ppm, read-out: Efficacy %): 9%
Efficacy % (Cordana musae; mixing partner alone, 0.8 ppm): 0%
Efficacy (Diaporthe citri [12]; Table F15, 4 ppm alone): 0%
Efficacy (Diaporthe citri [12]; Table F15, 20 ppm alone): 4%
inhibition of growth at 0.8 ppm (Botrytis cinerea [14]; Botrytis cinerea, 0.8 ppm, read-out: Efficacy): 0%
inhibition of growth at 4 ppm (Botrytis cinerea [14]; Botrytis cinerea, 4.0 ppm, read-out: Efficacy): 0%
inhibition of growth at 20 ppm (Botrytis cinerea [14]; Botrytis cinerea, read-out: Efficacy): 18%
inhibition of growth at 0.8 ppm (Botrytis cinerea [14]; Botrytis cinerea, alone, 0.8 ppm, read-out: Efficacy %): 0%
inhibition of growth at 20 ppm (Botrytis cinerea [14]; Botrytis cinerea, alone, read-out: Efficacy %): 14%
Efficacy % (Botrytis cinerea [14]; alone, 0.8 ppm): 0%
